Source: patent US20100222349A1, “QUINOLINE DERIVATIVES USED TO TREAT INFLAMMATORY AND ALLERGIC DISEASES” (Glaxo Group Limited, priority 2007, published 2010)

Experiments:
human H1 receptor [1] = target: T1, human H1 receptor (Homo sapiens, UniProt P35367); experiment: Histamine H1 functional antagonist assay: determination of antagonist pA2 (FLIPR); assay type: cell-based; conditions: histamine H1 receptor expressing CHO cells, histamine concentration response curves
T1 construct: expressed in transfected cells
Protocol: (§1) The human H1 receptor is cloned using known procedures described in the literature [Biochem. Biophys. Res. Commun., 201(2):894 (1994)]. Chinese hamster ovary (CHO) cells stably expressing the human H1 receptor are generated according to known procedures described in the literature [Br. J. Pharmacol., 117(6):1071 (1996)].
The histamine H1 receptor expressing CHO cells are seeded into non-coated black-walled clear bottom 96-well tissue culture plates as described above.
Following overnight culture, growth medium is removed from each well, washed with 200 μl PBS and is replaced with 50 μl loading dye (250 μM Brilliant Black, 1 μM Fluo-4 diluted in Tyrodes buffer+probenecid (145 mM NaCl, 2.5 mM KCl, 10 mM HEPES, 10 mM D-glucose, 1.2 mM MgCl2, 1.5 mM CaCl2, 2.5 mM probenecid, pH adjusted to 7.40 with NaOH 1.0 M)). Cells are incubated for 45 min at 37° C. The loading buffer is removed and the cells are washed as above, and 90 μl of Tyrodes buffer+probenecid is added to each well. 10 μl of test compound, diluted to the required concentration in Tyrodes buffer+probenecid (or 10 μl Tyrodes buffer+probenecid as a control) is added to each well and the plate is incubated for 30 min at 37° C., 5% CO2.
The plates are then placed into a FLIPR™ (Molecular Devices, UK) to monitor cell fluorescence (λex=488 nm, λEM=540 nm) in the manner described in Sullivan et al., (In: Lambert DG (ed.), Calcium Signaling Protocols, New Jersey: Humana Press, 1999, 125-136) before and after the addition of 50 μl histamine over a concentration range of 1 mM-0.1 nM. The resultant concentration response curves are analysed by non-linear regression using a standard four parameter logistic equation to determine the histamine EC50, the concentration of histamine required to produce a response of 50% of the maximum response to histamine. The antagonist pA2 is calculated using the following standard equation: pA2=[…] where DR=dose ratio, defined as EC50antagonist-treated/EC50control and [B]=concentration of antagonist.

human H1 receptor [2] = target: T1, human H1 receptor; experiment: Histamine H1 functional antagonist assay: determination of functional pKi values (FLIPR); assay type: cell-based; conditions: CHO cells expressing human H1 receptor, histamine at EC80, read-out: average pKi (pKb) at H1 (converted)
How it was run: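 CHO cells stably expressing human H1 receptor, loaded with Fluo-4 for 60 min, then preincubated with compound 30 min at 37° C in Tyrodes buffer with probenecid, pH 7.40. Histamine added at EC80; suppression of calcium fluorescence on FLIPR gives functional affinity from concentration-effect curves.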

histamine H3 receptor = target: T2, histamine H3 receptor (Homo sapiens, UniProt Q9Y5N1); experiment: Histamine H3 functional antagonist assay (GTPγS, membranes); assay type: biochemical; conditions: CHO K1 membranes, [35S]-GTPγS, histamine at EC80; read-out: average pKi (pKb) at H3 (converted)
T2 construct: expressed in transfected cells; host or cells: CHO K1 cells with pSwitch/pGeneH3 (GeneSwitch, mifepristone-induced), clone 3H3; membrane preparation
How it was run: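 Membranes came from CHO K1 cells with mifepristone-inducible (10 nM, 18 h) human H3 receptor expression, clone 3H3. Test compounds in DMSO were combined with WGA polystyrene LeadSeeker SPA beads, membranes and GDP.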

human H1 receptor [3] = target: T1, human H1 receptor; experiment: Histamine H1 functional antagonist assay: antagonist duration; assay type: cell-based; conditions: at one or more time points, after washout
Protocol: as §1
To determine the antagonist duration, cells are cultured overnight in non-coated black-walled clear bottom 96-well tissue culture plates, are washed with PBS and are incubated with a concentration of antagonist chosen to give an approximate DR in the range 30-300. Following the 30 min antagonist incubation period, the cells are washed two or three times with 200 μl of PBS and then 100 μl Tyrodes buffer is added to each well to initiate antagonist dissociation. Following incubation for predetermined times, typically 30-270 min at 37° C., the cells are then washed again with 200 μl PBS and are incubated with 100 μl Tyrodes buffer containing Brilliant Black, probenecid and Fluo-4 for 45 min at 37° C., as described above. After this period, the cells are challenged with histamine in the FLIPR™ as described above. The dose ratio at each time point is used to determine the fractional H1 receptor occupancy by the following equation: fractional receptor occupancy=(DR-1)/DR. The decrease in receptor occupancy over time approximates to a straight line and is analysed by linear regression. The slope of this straight line fit is used as an index of the dissociation rate of the antagonist. The dose ratios for antagonist treated cells and for antagonist treated and washed cells at each time point are used to calculate a relative dose ratio (rel DR) which is also used as an index of antagonist duration. Antagonists with long duration of action produce rel DR values close to 1, and antagonists with short duration of action produce rel DR values that approaches the dose ratio value obtained for antagonist treatment alone.

T2 sequence (Q9Y5N1 whole entry, species assumed): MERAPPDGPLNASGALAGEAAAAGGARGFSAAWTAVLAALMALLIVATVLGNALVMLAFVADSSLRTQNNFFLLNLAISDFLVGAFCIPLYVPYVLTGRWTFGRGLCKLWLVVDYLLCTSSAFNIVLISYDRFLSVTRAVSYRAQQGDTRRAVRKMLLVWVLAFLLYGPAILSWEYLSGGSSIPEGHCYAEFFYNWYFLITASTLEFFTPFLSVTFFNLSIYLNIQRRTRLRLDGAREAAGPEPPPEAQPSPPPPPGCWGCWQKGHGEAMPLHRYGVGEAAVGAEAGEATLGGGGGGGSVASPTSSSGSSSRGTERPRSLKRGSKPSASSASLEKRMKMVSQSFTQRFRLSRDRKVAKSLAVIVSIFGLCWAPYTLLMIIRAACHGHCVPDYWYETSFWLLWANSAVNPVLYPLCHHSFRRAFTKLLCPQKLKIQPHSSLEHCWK
T1 sequence (P35367 whole entry): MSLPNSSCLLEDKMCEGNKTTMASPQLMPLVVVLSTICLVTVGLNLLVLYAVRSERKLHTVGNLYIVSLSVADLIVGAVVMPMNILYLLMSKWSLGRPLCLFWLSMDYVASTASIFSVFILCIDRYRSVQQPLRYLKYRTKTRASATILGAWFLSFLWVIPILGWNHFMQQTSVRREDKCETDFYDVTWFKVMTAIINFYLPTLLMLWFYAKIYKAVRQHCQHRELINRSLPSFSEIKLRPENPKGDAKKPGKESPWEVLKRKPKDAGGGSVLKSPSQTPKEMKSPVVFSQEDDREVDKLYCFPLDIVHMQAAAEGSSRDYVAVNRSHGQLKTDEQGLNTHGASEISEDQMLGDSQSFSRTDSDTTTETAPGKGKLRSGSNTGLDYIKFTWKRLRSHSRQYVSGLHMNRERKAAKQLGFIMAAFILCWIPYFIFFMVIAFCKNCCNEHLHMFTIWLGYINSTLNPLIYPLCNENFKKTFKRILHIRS

SMILES	Kb (human H1 receptor [1])	Ki (human H1 receptor [2])	Ki (histamine H3 receptor)	duration of action compared with azelastine (human H1 receptor [3])
CCCCc1cc(O[C@H]2CCN(CCC(=O)N3CCCCC3)C2)c2ncccc2c1 [Example 38, 6-butyl-8-({(3S)-1-[3-oxo-3-(1-piperidinyl)propyl]-3-pyrrolidinyl}oxy)quinoline]	< 100 nM	~1000 nM	~100 nM	–
CCCCc1cc(O[C@H]2CCN(CCC(=O)N(CC)CC)C2)c2ncccc2c1 [Example 40, 3-{(3S)-3-[(6-butyl-8-quinolinyl)oxy]-1-pyrrolidinyl}-N,N-diethylpropanamide]	< 100 nM	~1000 nM	> 316 nM	–
CCCCc1cc(O[C@H]2CCN(CCCC(=O)NC(C)(C)C)C2)c2ncccc2c1 [Example 41, 4-{(3S)-3-[(6-butyl-8-quinolinyl)oxy]-1-pyrrolidinyl}-N-(1,1-dimethylethyl) butanamide]	< 100 nM	< 100 nM	> 316 nM	–
CCCCc1cc(OC2CCN(C[C@H]3CC[C@H](C(=O)N(CC)CC)CC3)CC2)c2ncccc2c1 [Example 43, Trans-4-({4-[(6-butyl-8-quinolinyl)oxy]-1-piperidinyl}methyl)-N,N-diethylcyclohexane carboxamide]	–	< 10 nM	> 316 nM	longer duration of action than azelastine
CCCCc1cc(OC2CCN(CCCNC(=O)C(C)(C)C)CC2)c2ncccc2c1 [Example 69, N-(3-{4-[(6-butyl-8-quinolinyl)oxy]-1-piperidinyl}propyl)-2,2-dimethyl propanamide]	–	< 10 nM	> 316 nM	–
CCCCc1cc(OC2CCN(CCNC(=O)C(C)C)CC2)c2ncccc2c1 [Example 71, N-(2-{4-[(6-butyl-8-quinolinyl)oxy]-1-piperidinyl}ethyl)-2-methylpropanamide]	–	< 10 nM	> 316 nM	–
CCCCc1cc(OC2CCN(CCNC(=O)CC)CC2)c2ncccc2c1 [Example 73, N-(2-{4-[(6-butyl-8-quinolinyl)oxy]-1-piperidinyl}ethyl) propanamide]	–	< 10 nM	> 316 nM	–
CCCCc1cc(OC2CCN(CCNC(=O)C3CCCCC3)CC2)c2ncccc2c1 [Example 75, N-(2-{4-[(6-butyl-8-quinolinyl)oxy]-1-piperidinyl}ethyl) cyclohexane carboxamide]	–	< 10 nM	> 316 nM	–
CCCCc1cc(OC2CCN(CCCCCNC(=O)C3CCCCC3)CC2)c2ncccc2c1 [Example 78, N-(5-{4-[(6-butyl-8-quinolinyl)oxy]-1-piperidinyl}pentyl) cyclohexane carboxamide]	–	< 10 nM	> 316 nM	–
CCCCc1cc(OC2CCN(CCCc3nc(CCC)no3)CC2)c2ncccc2c1 [Example 87, 6-Butyl-8-({1-[3-(3-propyl-1,2,4-oxadiazol-5-yl)propyl]-4-piperidinyl}oxy)quinoline]	–	< 10 nM	> 316 nM	–
CCCCCc1cc(OC2CCN(CCCC(=O)NC(C)(C)C)CC2)c2ncccc2c1 [Example 88, N-(1,1-dimethylethyl)-4-{4-[(6-pentyl-8-quinolinyl)oxy]-1-piperidinyl}butanamide]	–	< 10 nM	> 316 nM	–
CCCCCc1cc(OC2CCN(CCCC(=O)N(CC)CC)CC2)c2ncccc2c1 [Example 89, N,N-Diethyl-4-{4-[(6-pentyl-8-quinolinyl)oxy]-1-piperidinyl}butanamide]	–	< 100 nM	> 316 nM	–
CCCCCc1cc(OC2CCN(CCCNC(=O)C(C)(C)C)CC2)c2ncccc2c1 [Example 91, 2,2-Dimethyl-N-(3-{4-[(6-pentyl-8-quinolinyl)oxy]-1-piperidinyl}propyl) propanamide]	–	< 10 nM	> 316 nM	–

Further lines, with some results ahead:

Kb (human H1 receptor [1])	Ki (human H1 receptor [2])	Ki (histamine H3 receptor)	SMILES	duration of action compared with azelastine (human H1 receptor [3])
–	< 10 nM	> 316 nM	CCCCc1cc(OC2CCN(CCCNC(=O)CCC)CC2)c2ncccc2c1 [Example 70, N-(3-{4-[(6-butyl-8-quinolinyl)oxy]-1-piperidinyl}propyl) butanamide]	–
–	< 10 nM	> 316 nM	CCCCc1cc(OC2CCN(CCNC(=O)CCC)CC2)c2ncccc2c1 [Example 74, N-(2-{4-[(6-butyl-8-quinolinyl)oxy]-1-piperidinyl}ethyl) butanamide]	–
–	< 10 nM	> 316 nM	CCCCc1cc(OC2CCN(CCCCCNC(=O)C(C)(C)C)CC2)c2ncccc2c1 [Example 76, N-(5-{4-[(6-butyl-8-quinolinyl)oxy]-1-piperidinyl}pentyl)-2,2-dimethyl propanamide]	–
–	< 10 nM	> 316 nM	CCCCc1cc(OC2CCN(CCCCCNC(=O)CC)CC2)c2ncccc2c1 [Example 77, N-(5-{4-[(6-butyl-8-quinolinyl)oxy]-1-piperidinyl}pentyl) propanamide]	–
–	< 10 nM	> 316 nM	CCCCc1cc(OC2CCN(CCCCNC(C)=O)CC2)c2ncccc2c1 [Example 79, N-(4-{4-[(6-Butyl-8-quinolinyl)oxy]-1-piperidinyl}butyl)acetamide]	–
–	< 10 nM	> 316 nM	CCCCc1cc(OC2CCN(CCNC(=O)CCOC)CC2)c2ncccc2c1 [Example 80, N-(2-{4-[(6-butyl-8-quinolinyl)oxy]-1-piperidinyl}ethyl)-3-(methyloxy) propanamide]	–
–	< 10 nM	> 316 nM	CCCCc1cc(OC2CCN(CCNC(=O)CCCOC)CC2)c2ncccc2c1 [Example 81, N-(2-{4-[(6-butyl-8-quinolinyl)oxy]-1-piperidinyl}ethyl)-4-(methyloxy) butanamide]	–
–	< 10 nM	> 316 nM	CCCCc1cc(OC2CCN(CCCNC(=O)CCOC)CC2)c2ncccc2c1 [Example 82, N-(3-{4-[(6-butyl-8-quinolinyl)oxy]-1-piperidinyl}propyl)-3-(methyloxy) propanamide]	–
–	< 100 nM	> 316 nM	CCCCc1cc(OC2CCN(CCCNC(=O)CCCOC)CC2)c2ncccc2c1 [Example 83, N-(3-{4-[(6-butyl-8-quinolinyl)oxy]-1-piperidinyl}propyl)-4-(methyloxy) butanamide]	–
–	< 10 nM	> 316 nM	CCCCc1cc(OC2CCN(CCCCNC(=O)CCCOC)CC2)c2ncccc2c1 [Example 84, N-(4-{4-[(6-butyl-8-quinolinyl)oxy]-1-piperidinyl}butyl)-4-(methyloxy) butanamide]	–
–	< 10 nM	> 316 nM	CCCCc1cc(OC2CCN(CCCCNC(=O)CCOC)CC2)c2ncccc2c1 [Example 85, N-(4-{4-[(6-butyl-8-quinolinyl)oxy]-1-piperidinyl}butyl)-3-(methyloxy) propanamide]	–
–	< 10 nM	> 316 nM	CCCCc1cc(OC2CCN(CCCNC(=O)CC)CC2)c2ncccc2c1 [Example 86, N-(3-{4-[(6-Butyl-8-quinolinyl)oxy]-1-piperidinyl}propyl)propanamide]	–
–	< 10 nM	> 316 nM	CCCCCc1cc(OC2CCN(CCCNC(=O)CC)CC2)c2ncccc2c1 [Example 90, N-(3-{4-[(6-Pentyl-8-quinolinyl)oxy]-1-piperidinyl}propyl)propanamide]	–
